8 compounds from patent US10385024B2, “Compounds and methods for inhibiting NHE-mediated antiport in the treatment of disorders associated with fluid retention or salt overload and gastrointestinal tract disorders” (Ardelyx, Inc., priority 2012, dated 2019) can be followed below.

Experiment [1] addresses T1, Rat NHE-3 (Rattus norvegicus, UniProt P26433).
T1 construct: expressed in transfected cells; host or cells: Opossum kidney (OK) cells (ATCC), transfected by electroporation
Put plainly: Cell-based assay of NHE-3 activity (rat NHE-3 prompt inhibition). The following applies: OK cells with rat NHE-3 gene, compound present during pH recovery; for IC50: read-out: Rat NHE3 pIC50 (prompt) (converted). The method in brief:
(§1)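 Opossum kidney cells electroporated with rat or human NHE-3, loaded with 5 μM BCECF-AM in NH4Cl-HEPES pH 7.4 for 30 min at RT, then acidified 10 min in Na+-free choline HEPES. Na+-dependent pH recovery rates from BCECF fluorescence, averaged over ≥2 replicates, gave pIC50.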

For experiment [2], the target named is T1, Rat NHE-3. Put plainly: Cell-based assay of NHE-3 activity (persistent inhibition, after washout). Particulars: OK cells with rat NHE-3 gene, 60 min incubation, recovery initiated 40 min after compound washout; for IC50: read-out: Rat NHE3 pIC50 (persistent) (converted). The method in brief:
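OK cells transiently expressing rat NHE-3 were exposed to 0-30 μM compound in NaCl-HEPES pH 7.4 for 60 min, then washed free of drug before NH4Cl/BCECF-AM loading and acid-loading in Na+-free choline buffer. Na+-dependent pH recovery rates (mean of ≥2 replicates) gave pIC50.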

Experiment [3] has as its system absorption of sodium from the intestinal lumen. As to the kind of experiment: Inhibition of intestinal sodium absorption (urinary sodium and fecal form). Particulars: rat; for response vs control in vivo at 3 mg/kg: 3 mg/kg oral gavage, urine 16 h post-dose, asterisks = significance vs vehicle (*P<0.05, **P<0.01, ***P<0.001), read-out: uNa (% of vehicle); for FFS: fecal form score, scale 1 (normal pellet) to 5 (liquid fecal streams), group average, 3 mg/kg oral, 16 h post-dose, vehicle = 1. It counts as in vivo, Sprague-Dawley rats. The method, then:
Urinary sodium concentration and fecal form were measured to assess the ability of selected example compounds to inhibit the absorption of sodium from the intestinal lumen. Eight-week old Sprague-Dawley rats were purchased from Charles River Laboratories (Hollister, Calif.), were housed 2 per cage, and acclimated for at least 3 days before study initiation. Animals were fed Harlan Teklad Global 2018 rodent chow (Indianapolis, Ind.) and water ad libitum throughout the study and maintained in a standard light/dark cycle of 6 AM to 6 PM. On the day of the study, between 4 PM and 5 PM, a group of rats (n=6) were dosed via oral gavage with test compound at the dosage indicated or vehicle (water) at a volume of 10 mL/kg. After dose administration animals were placed in individual metabolic cages where they were also fed the same chow in meal form and watered ad libitum. At 16 h post-dose, the urine samples were collected and fecal form was assessed by two independent observations. Fecal forms were scored according to a common scale associated with increasing fecal water to the wettest observation in the cage's collection funnel (1, normal pellet; 2, pellet adhering to sides of collection funnel due to moisture; 3, loss of normal pellet shape; 4, complete loss of shape with a blotting pattern; 5, liquid fecal streams evident). A rat's fecal form score (FFS) was determined by averaging both observational scores for all rats within a group (n=6). In every study the vehicle group average was 1. For urine samples, the volumes were determined gravimetrically and centrifuged at 3,600×g. The supernatants were diluted 100-fold in deionized Milli-Q water then filtered through a 0.2 μm GHP Pall AcroPrep filter plate (Pall Life Sciences, Ann Arbor, Mich.) prior to analysis by ion chromatography. Ten microliters of each filtered extract was injected onto a Dionex ICS-3000 ion chromatograph system (Dionex, Sunnyvale, Calif.). Cations were separated by an isocratic method using 25 mM methanesulfonic acid as the eluent on an IonPac CS12A 2 mm i.d.×250 mm, 8 μm particle size cation exchange column (Dionex). Sodium was quantified using standards prepared from a cation standard mix containing Li^+, Na^+, NH4^+, K^+, Mg^2+, and Ca^2+ (Dionex). The mean mass of sodium urinated for every group in the 16 h period was determined with the vehicle group usually urinating approximately 21 mg sodium. The urine Na (uNa) for rats in the test groups were expressed as a percentage of the vehicle mean and the means were compared to that of the vehicle group by utilizing a one-way analysis of variance coupled with a Dunnett's post hoc test.

The target in the next experiment is T2, human NHE-3 (Homo sapiens, UniProt P48764).
T2 construct: expressed in transfected cells; host or cells: Opossum kidney (OK) cells (ATCC), transfected by electroporation
T2 sequence (P48764 26-834): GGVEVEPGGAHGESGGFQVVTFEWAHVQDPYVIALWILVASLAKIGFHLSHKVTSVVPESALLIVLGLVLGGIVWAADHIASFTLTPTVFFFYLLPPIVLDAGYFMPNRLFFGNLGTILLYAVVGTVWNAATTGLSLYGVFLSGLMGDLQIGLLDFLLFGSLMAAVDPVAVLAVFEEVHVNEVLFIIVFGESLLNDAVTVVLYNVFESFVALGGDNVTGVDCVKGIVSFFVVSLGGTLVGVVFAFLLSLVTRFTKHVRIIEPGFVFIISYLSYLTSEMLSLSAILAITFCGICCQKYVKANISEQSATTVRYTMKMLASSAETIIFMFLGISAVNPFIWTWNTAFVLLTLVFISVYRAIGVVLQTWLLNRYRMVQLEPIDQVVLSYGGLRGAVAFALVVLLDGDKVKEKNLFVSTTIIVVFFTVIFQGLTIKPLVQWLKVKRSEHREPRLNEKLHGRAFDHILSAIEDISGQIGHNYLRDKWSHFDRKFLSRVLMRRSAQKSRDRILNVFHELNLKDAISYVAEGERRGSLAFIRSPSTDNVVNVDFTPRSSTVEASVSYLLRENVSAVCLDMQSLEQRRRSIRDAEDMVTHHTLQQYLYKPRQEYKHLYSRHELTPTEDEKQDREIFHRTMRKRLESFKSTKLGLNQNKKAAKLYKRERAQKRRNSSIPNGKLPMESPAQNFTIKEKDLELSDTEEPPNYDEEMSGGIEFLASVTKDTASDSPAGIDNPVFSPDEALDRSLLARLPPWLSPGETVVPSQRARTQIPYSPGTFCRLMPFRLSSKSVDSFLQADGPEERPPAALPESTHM
As to the kind of experiment: Cell-based assay of NHE-3 activity (human NHE3 inhibition assay). The following applies: OK cells with human NHE-3 gene, BCECF pH dye, 0-30 μM test compound; for IC50: read-out: Human NHE3 pIC50 (converted). In a few lines: as §1

Bounds are passed on as bounds.

T1 sequence (P26433 29-831): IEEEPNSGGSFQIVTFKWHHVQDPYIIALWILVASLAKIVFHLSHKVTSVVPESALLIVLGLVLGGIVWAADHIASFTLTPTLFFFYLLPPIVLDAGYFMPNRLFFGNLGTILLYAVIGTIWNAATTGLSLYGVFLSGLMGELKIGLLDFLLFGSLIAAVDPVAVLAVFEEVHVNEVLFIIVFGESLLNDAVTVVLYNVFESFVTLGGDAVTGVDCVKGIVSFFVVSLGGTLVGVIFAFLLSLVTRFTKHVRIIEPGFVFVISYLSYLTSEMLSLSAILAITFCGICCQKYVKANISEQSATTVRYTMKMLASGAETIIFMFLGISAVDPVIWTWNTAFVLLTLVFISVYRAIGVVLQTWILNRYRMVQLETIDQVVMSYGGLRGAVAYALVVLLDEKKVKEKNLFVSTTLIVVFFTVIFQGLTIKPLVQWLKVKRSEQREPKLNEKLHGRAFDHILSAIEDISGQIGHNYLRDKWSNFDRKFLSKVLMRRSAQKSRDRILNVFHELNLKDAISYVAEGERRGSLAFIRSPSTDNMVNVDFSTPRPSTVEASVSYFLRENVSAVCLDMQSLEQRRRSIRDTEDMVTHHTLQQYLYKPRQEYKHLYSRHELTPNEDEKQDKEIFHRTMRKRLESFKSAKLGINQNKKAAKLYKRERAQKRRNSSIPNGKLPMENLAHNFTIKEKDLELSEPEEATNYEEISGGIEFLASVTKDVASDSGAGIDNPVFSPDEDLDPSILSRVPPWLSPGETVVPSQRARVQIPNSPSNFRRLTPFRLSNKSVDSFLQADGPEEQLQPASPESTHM

`CNC(=O)NC(CCC(=O)NCCOCCOCCNS(=O)(=O)c1cccc([C@@H]2CN(C)Cc3c(Cl)cc(Cl)cc32)c1)(CCC(=O)NCCOCCOCCNS(=O)(=O)c1cccc([C@@H]2CN(C)Cc3c(Cl)cc(Cl)cc32)c1)CCC(=O)NCCOCCOCCNS(=O)(=O)c1cccc([C@@H]2CN(C)Cc3c(Cl)cc(Cl)cc32)c1` [Example 26]: the “Rat NHE3 pIC50 (prompt)” value on Rat NHE-3 [1] is given as “B (B NHE3 pIC50 5-7)”. Further, the “Rat NHE3 pIC50 (persistent)” value at Rat NHE-3 [2] is “C (C NHE3 pIC50 > 7)”. Further, the response vs control in vivo at 3 mg/kg in experiment [3] was less than 35%. Besides, the “Human NHE3 pIC50” value at human NHE-3 is listed as “C (C NHE3 pIC50 > 7)”.

With `CN1Cc2c(Cl)cc(Cl)cc2[C@H](c2cccc(S(=O)(=O)N(CCO)CCOCCOCCNC(=O)NCCCN(CCCNC(=O)NCCOCCOCCN(CCO)S(=O)(=O)c3cccc([C@@H]4CN(C)Cc5c(Cl)cc(Cl)cc54)c3)CCCNC(=O)NCCOCCOCCN(CCO)S(=O)(=O)c3cccc([C@@H]4CN(C)Cc5c(Cl)cc(Cl)cc54)c3)c2)C1` [Example 56], the “Rat NHE3 pIC50 (prompt)” value at Rat NHE-3 [1] is recorded as “C (C NHE3 pIC50 > 7)”. In addition, the “Rat NHE3 pIC50 (persistent)” value at Rat NHE-3 [2] is recorded as “C (C NHE3 pIC50 > 7)”. Besides, in experiment [3], the response vs control in vivo at 3 mg/kg is 35 to 75%. In addition, the “Human NHE3 pIC50” value on human NHE-3 is recorded as “C (C NHE3 pIC50 > 7)”.

For the compound `CC(O)C(CCC(=O)NCCOCCOCCNS(=O)(=O)c1cccc([C@@H]2CN(C)Cc3c(Cl)cc(Cl)cc32)c1)(CCC(=O)NCCOCCOCCNS(=O)(=O)c1cccc([C@@H]2CN(C)Cc3c(Cl)cc(Cl)cc32)c1)CCC(=O)NCCOCCOCCNS(=O)(=O)c1cccc([C@@H]2CN(C)Cc3c(Cl)cc(Cl)cc32)c1` (stereo partly drawn) [Example 73, N1,N7-bis(2-(2-(2-(3-((S)-6,8-dichloro-2-methyl-1,2,3,4-tetrahydroisoquinolin-4-yl)phenylsulfonamido)ethoxy)ethoxy)ethyl)-4-(3-(2-(2-(2-(3-((S)-6,8-dichloro-2-methyl-1,2,3,4-tetrahydroisoquinolin-4-yl)phenylsulfonamido)ethoxy)ethoxy)ethylamino)-3-oxopropyl)-4-(1-hydroxyethyl)heptanediamide], the IC50 on Rat NHE-3 [1], on Rat NHE-3 [2] and on human NHE-3 was less than 100 nM in each case. In addition, the FFS in experiment [3] worked out at 2. For the same compound, in experiment [3], the response vs control in vivo at 3 mg/kg was 35 to 75%.

Take `CCC(=O)NC(CCC(=O)NCCOCCOCCOCCNS(=O)(=O)c1cccc([C@@H]2CN(C)Cc3c(Cl)cc(Cl)cc32)c1)(CCC(=O)NCCOCCOCCOCCNS(=O)(=O)c1cccc([C@@H]2CN(C)Cc3c(Cl)cc(Cl)cc32)c1)CCC(=O)NCCOCCOCCOCCNS(=O)(=O)c1cccc([C@@H]2CN(C)Cc3c(Cl)cc(Cl)cc32)c1` [Example 10, 4-(1-(3-((S)-6,8-dichloro-2-methyl-1,2,3,4-tetrahydroisoquinolin-4-yl)phenylsulfonamido)-13-oxo-3,6,9-trioxa-12-azapentadecan-15-yl)-N1,N7-bis(2-(2-(2-(2-(3-((S)-6,8-dichloro-2-methyl-1,2,3,4-tetrahydroisoquinolin-4-yl)phenylsulfonamido)ethoxy)ethoxy)ethoxy)ethyl)-4-propionamidoheptanediamide]: the IC50 at Rat NHE-3 [1], on Rat NHE-3 [2] and at human NHE-3 was less than 100 nM each time. For the same compound, the FFS in experiment [3] is 2. Further, the response vs control in vivo at 3 mg/kg in experiment [3] was 35 to 75%.

As for `CN1Cc2c(Cl)cc(Cl)cc2[C@H](c2cccc(S(=O)(=O)NCCOCCOCCNC(=O)N(C)CCCN(CCCN(C)C(=O)NCCOCCOCCNS(=O)(=O)c3cccc([C@@H]4CN(C)Cc5c(Cl)cc(Cl)cc54)c3)CCCN(C)C(=O)NCCOCCOCCNS(=O)(=O)c3cccc([C@@H]4CN(C)Cc5c(Cl)cc(Cl)cc54)c3)c2)C1` [Example 47, (S)—N,N′-(15-(1-(3-((S)-6,8-dichloro-2-methyl-1,2,3,4-tetrahydroisoquinolin-4-yl)phenylsulfonamido)-11-methyl-10-oxo-3,6-dioxa-9,11-diazatetradecan-14-yl)-11,19-dimethyl-10,20-dioxo-3,6,24,27-tetraoxa-9,11,15,19,21-pentaazanonacosane-1,29-diyl)bis(3-((S)-6,8-dichloro-2-methyl-1,2,3,4-tetrahydroisoquinolin-4-yl)benzenesulfonamide)], the IC50 at Rat NHE-3 [1] was 100 to 10000 nM; on Rat NHE-3 [2], less than 100 nM; on human NHE-3, less than 100 nM. Besides, in experiment [3], the response vs control in vivo at 3 mg/kg is 35 to 75%.

As for `CN1Cc2c(Cl)cc(Cl)cc2[C@H](c2cccc(S(=O)(=O)NCCOCCOCCNC(=O)CCC(CCC(=O)NCCOCCOCCNS(=O)(=O)c3cccc([C@@H]4CN(C)Cc5c(Cl)cc(Cl)cc54)c3)(CCC(=O)NCCOCCOCCNS(=O)(=O)c3cccc([C@@H]4CN(C)Cc5c(Cl)cc(Cl)cc54)c3)NC(=O)N[C@@H](CO)C(=O)O)c2)C1` [Example 39], the “Rat NHE3 pIC50 (prompt)” value on Rat NHE-3 [1] is reported as “C (C NHE3 pIC50 > 7)”. The “Rat NHE3 pIC50 (persistent)” value at Rat NHE-3 [2] was “C (C NHE3 pIC50 > 7)”. Besides, in experiment [3], the response vs control in vivo at 3 mg/kg is less than 35%. Moreover, the “Human NHE3 pIC50” value at human NHE-3 is listed as “C (C NHE3 pIC50 > 7)”.

For `CN(C)CC(=O)NC(CCC(=O)N(C)CCOCCOCCNS(=O)(=O)c1cccc([C@@H]2CN(C)Cc3c(Cl)cc(Cl)cc32)c1)(CCC(=O)N(C)CCOCCOCCNS(=O)(=O)c1cccc([C@@H]2CN(C)Cc3c(Cl)cc(Cl)cc32)c1)CCC(=O)N(C)CCOCCOCCNS(=O)(=O)c1cccc([C@@H]2CN(C)Cc3c(Cl)cc(Cl)cc32)c1` [Example 68], at Rat NHE-3 [1], the “Rat NHE3 pIC50 (prompt)” value is listed as “C (C NHE3 pIC50 > 7)”. The “Rat NHE3 pIC50 (persistent)” value on Rat NHE-3 [2] is “C (C NHE3 pIC50 > 7)”. Moreover, the response vs control in vivo at 3 mg/kg in experiment [3] was in the range of 35 to 75%. Besides, the “Human NHE3 pIC50” value on human NHE-3 was “C (C NHE3 pIC50 > 7)”.

Regarding `CN1Cc2c(Cl)cc(Cl)cc2C(c2cccc(S(=O)(=O)NCCOCCOCCNC(=O)CCC(CCC(=O)NCCOCCOCCNS(=O)(=O)c3cccc(C4CN(C)Cc5c(Cl)cc(Cl)cc54)c3)(CCC(=O)NCCOCCOCCNS(=O)(=O)c3cccc(C4CN(C)Cc5c(Cl)cc(Cl)cc54)c3)NC(=O)C3CCCCC3C(=O)O)c2)C1` (stereo not shown) [Example 28], the “Rat NHE3 pIC50 (prompt)” value at Rat NHE-3 [1] was “B (B NHE3 pIC50 5-7)”. Further, the “Rat NHE3 pIC50 (persistent)” value at Rat NHE-3 [2] is recorded as “C (C NHE3 pIC50 > 7)”. In addition, in experiment [3], the response vs control in vivo at 3 mg/kg was in the range of 35 to 75%. In addition, at human NHE-3, the “Human NHE3 pIC50” value is listed as “C (C NHE3 pIC50 > 7)”.
